The record followed here is patent US9376391B2, “Difluoromethyl-nicotinic-tetrahydronaphthyl carboxamides as fungicides” (BAYER CROPSCIENCE AKTIENGESELLSCHAFT, priority 2012, dated 2016).

The term chromatographic logP denotes lipophilicity estimated from chromatographic retention. A low value points to a more hydrophilic compound.

One series deals with Sphaerotheca fuliginea. In words: In vivo preventive test on Sphaerotheca fuliginea (powdery mildew on cucurbits). The note with it: preventive spray, gherkin plants, grading 12 days after contamination. The procedure: In Vivo Preventive Test on Sphaerotheca fuliginea (Powdery Mildew on Cucurbits)
(§1) The active ingredients tested are prepared by homogenization in a mixture of acetone/tween/DMSO and then diluted with water to obtain the desired active material concentration.
(§2) Gherkin plants (“Vert petit de Paris” variety), sown in starter cups on a 50/50 peat soil-pozzolana substrate and grown at 24° C., are treated at the Z11 cotyledon stage by spraying with the active ingredient prepared as described above. Plants, used as controls, are treated with the mixture of acetone/tween/DMSO/water not containing the active material.
After 24 hours, the plants are contaminated by spraying the cotyledons with an aqueous suspension of Sphaerotheca fuliginea spores (100 000 spores per ml). The spores are collected from infected plants. The contaminated gherkin plants are incubated at about 20° C. and at 70-80% relative humidity.
Grading (% of efficacy) is carried out 12 days after the contamination, in comparison with the control plants.

Another series concerns Septoria tritici. In words: In vivo preventive test on Septoria tritici (leaf spot on wheat). The note with it: preventive spray, wheat plants, grading 24 days after contamination. The procedure: In Vivo Preventive Test on Septoria tritici (Leaf Spot on Wheat)
(§3) The active ingredients tested are prepared by homogenization in a mixture of acetone/tween/DMSO, and then diluted with water to obtain the desired active material concentration.
Wheat plants (“Scipion” variety), sown in starter cups on a 50/50 peat soil-pozzolana substrate and grown at 22° C., are treated at the 1-leaf stage (10 cm height) by spraying with the active ingredient prepared as described above. Plants, used as controls, are treated with the mixture of acetone/tween/DMSO/water not containing the active material.
After 24 hours, the plants are contaminated by spraying the leaves with an aqueous suspension of cryopreserved Septoria tritici spores (500 000 spores per ml). The contaminated wheat plants are incubated for 72 hours at 18° C. and at 100% relative humidity, and then for 21 days at 90% relative humidity.
Grading (% of efficacy) is carried out 24 days after the contamination, in comparison with the control plants.

The subject of a further series is Puccinia recondita. In words: In vivo preventive test on Puccinia recondita (brown rust on wheat). The note with it: wheat, spray, graded 12 days after contamination vs control plants. The procedure:
In Vivo Preventive Test on Puccinia recondita (Brown Rust on Wheat) […] Wheat plants (“Scipion” variety), sown in starter cups on a 50/50 peat soil-pozzolana substrate and grown at 22° C., are treated at the 1-leaf stage (10 cm height) by spraying with the active ingredient prepared as described above. Plants, used as controls, are treated with the mixture of acetone/tween/DMSO/water not containing the active material. After 24 hours, the plants are contaminated by spraying the leaves with an aqueous suspension of Puccinia recondita spores (100 000 spores per ml). The spores are collected from an infected plant and are suspended in water containing 2.5 ml/1 of Tween 80 at 10%. The contaminated wheat plants are incubated for 24 hours at 20° C. and at 100% relative humidity, and then for 10 days at 20° C. and at 70-80% relative humidity. Grading (% of efficacy) is carried out 12 days after the contamination, in comparison with the control plants.

A further series deals with Uromyces appendiculatus. The series can be described thus: In vivo preventive test on Uromyces appendiculatus (bean rust). As to conditions: preventive spray, bean plants, grading 11 days after contamination. The procedure: In Vivo Preventive Test on Uromyces appendiculatus (Bean Rust) […] Bean plants (“Saxa” variety), sown in starter cups on a 50/50 peat soil-pozzolana substrate and grown at 24° C., are treated at the 2-leaf stage (9 cm height) by spraying with the active ingredient prepared as described above. Plants, used as controls, are treated with the mixture of acetone/tween/DMSO/water not containing the active material. After 24 hours, the plants are contaminated by spraying the leaves with an aqueous suspension of Uromyces appendiculatus spores (150 000 spores per ml). The spores are collected from infected plants and are suspended in water containing 2.5 ml/1 of Tween 80 at 10%. The contaminated bean plants are incubated for 24 hours at 20° C. and at 100% relative humidity, and then for 10 days at 20° C. and at 70-80% relative humidity. Grading (% of efficacy) is carried out 11 days after the contamination, in comparison with the control plants.

Series [1] is described as follows: log P by HPLC on reversed phase columns (EEC directive 79/831 Annex V.A8). As to conditions: Table 1, formula (I), HPLC/LC-MS at pH 2.7, 0.1% formic acid in water / acetonitrile, gradient 10% to 95%; for chromatographic logP: reversed phase HPLC columns. Format: physicochemical.
The subject of the next series is Botrytis cinerea. In words: In vivo preventive test on Botrytis cinerea (grey mould), gherkin plants. As to conditions: gherkin, spray, graded 4 to 5 days after contamination vs control plants. The procedure: In Vivo Preventive Test on Botrytis cinerea (Grey Mould)
as §1, §2
After 24 hours, the plants are contaminated by spraying the cotyledons with an aqueous suspension of cryopreserved Botrytis cinerea spores (50 000 spores per ml). The spores are suspended in a nutrient solution composed of 10 g/L of PDB, 50 g/L of D-Fructose, 2 g/L of NH4NO3 and 1 g/L of KH2PO4. The contaminated gherkin plants are incubated at 17° C. and at 90% relative humidity.
Grading (% of efficacy) is carried out 4 to 5 days after the contamination, in comparison with the control plants.

In another series the test system is Alternaria brassicae. The series can be described thus: In vivo preventive test on Alternaria brassicae (leaf spot on radish). The note with it: spray, graded 6 days after contamination vs control plants. The procedure: In Vivo Preventive Test on Alternaria brassicae (Leaf Spot on Radish)
as §3
Radish plants (“Pernod Clair” variety), sown in starter cups on a 50/50 peat soil-pozzolana substrate and grown at 17° C., are treated at the cotyledon stage by spraying with the active ingredient prepared as described above. Plants, used as controls, are treated with the mixture of acetone/tween/DMSO/water not containing the active material.
After 24 hours, the plants are contaminated by spraying the cotyledons with an aqueous suspension of Alternaria brassicae spores (50 000 spores per ml). The spores are collected from a 15-day-old culture. The contaminated radish plants are incubated at 20° C. and at 100% relative humidity.
Grading (% of efficacy) is carried out 6 days after the contamination, in comparison with the control plants.

`CON=C1c2cccc(NC(=O)c3cccnc3C(F)F)c2CC1(C)C` (mixture of isomers) [Example 34]: the Eff. % in the series with Sphaerotheca fuliginea (500 ppm) was found to be 100%; with Septoria tritici (500 ppm) it was 100%; in the series on Puccinia recondita (dose 500 ppm), 93%.

Consider `CCC1(C)CC(C)c2c(NC(=O)c3cc(C)cnc3C(F)F)cccc21` (mixture of isomers) [Example 82], for which the figures for the Eff. % in the series on Uromyces appendiculatus (100 ppm), in the series with Puccinia recondita (dose 100 ppm) and in the series with Botrytis cinerea (dose 100 ppm) were 88%, 94% and 80%, respectively. The “logP^[a]” value in series [1] is 3.94^[a].

Turning to `CON=C1CC(C)c2c(NC(=O)c3cccnc3C(F)F)cccc21` (racemic) [Example 30], the Eff. % is given as 88% in the series with Septoria tritici (500 ppm), 98% in the series with Uromyces appendiculatus (500 ppm) and 86% in the series with Puccinia recondita (dose 500 ppm). Also, in series [1], the “logP^[a]” value is 2.32^[a].

Turning to `CCC1(CC)Cc2c(NC(=O)c3cccnc3C(F)F)cccc2C1C` (racemic) [Example 60], the Eff. % was 100% in the series on Sphaerotheca fuliginea (500 ppm); 100% in the series on Alternaria brassicae (dose 500 ppm); 100% in the series with Septoria tritici (500 ppm); 100% with Uromyces appendiculatus (500 ppm); 98% in the series on Puccinia recondita (dose 500 ppm). The “logP^[a]” value in series [1] is 4.11^[a].

Regarding `CCC1OC(C)(C)c2cccc(NC(=O)c3cccnc3C(F)F)c21` (racemic) [Example 77], the Eff. % in the series on Sphaerotheca fuliginea (100 ppm) stood at 98%; in the series with Alternaria brassicae (dose 100 ppm), 75%; with Septoria tritici (100 ppm) it was 93%; with Uromyces appendiculatus (100 ppm), 100%; in the series on Puccinia recondita (dose 100 ppm), 98%. In series [1], the “logP^[a]” value is 2.39^[a].

Consider `CCC1(CC)CC(C)c2c(NC(=O)c3cc(C)cnc3C(F)F)cccc21` (racemic) [Example 79], for which, in series [1], the “logP^[a]” value is 4.31^[a]. The Eff. % in the series with Puccinia recondita (dose 100 ppm) amounted to 89%; in the series on Botrytis cinerea (dose 100 ppm) it was 80%.

Turning to `CCCCON=C1CCc2c(NC(=O)c3cccnc3C(F)F)cccc21` [Example 6], in the series on Alternaria brassicae (dose 500 ppm), the Eff. % is 71%. Moreover, in series [1], the “logP^[a]” value was 3.44^[a].

On to `CCCON=C1CCc2c(NC(=O)c3cccnc3C(F)F)cccc21` [Example 7], for which the Eff. % with Alternaria brassicae (dose 500 ppm) is given as 79%; with Uromyces appendiculatus (500 ppm), 71%. Moreover, the “logP^[a]” value in series [1] is 3.00^[a].

As for `Cc1ccc(NC(=O)c2cccnc2C(F)F)c2c1C(C)(C)CC2C` (centres unmarked) [Example 11], in series [1], the “logP^[a]” value was 3.41^[a]. The Eff. % turned out to be 98% in the series on Puccinia recondita (dose 500 ppm) and 99% in the series on Botrytis cinerea (dose 500 ppm).

Take `CC1OC(C)(C)c2c(Br)ccc(NC(=O)c3cccnc3C(F)F)c21` (centres unmarked) [Example 15]: the Eff. % is 83% in the series on Septoria tritici (500 ppm), 81% in the series on Uromyces appendiculatus (500 ppm) and 86% in the series with Puccinia recondita (dose 500 ppm). In addition, the “logP^[a]” value in series [1] is 2.89^[a].

Consider `Cc1cnc(C(F)F)c(C(=O)Nc2ccc(F)c3c2C(C)CC3(C)C)c1` (centres unmarked) [Example 23], for which the Eff. % in the series with Sphaerotheca fuliginea (500 ppm) was 94%; in the series with Septoria tritici (500 ppm), 71%; in the series on Uromyces appendiculatus (500 ppm), 93%; with Puccinia recondita (dose 500 ppm), 94%. Besides, the “logP^[a]” value in series [1] was 3.64^[a].

With `CCC1Cc2c(NC(=O)c3cc(C)cnc3C(F)F)cccc2C1(C)C` (centres unmarked) [Example 38, 2-(difluoromethyl)-N-(2-ethyl-1,1-dimethyl-2,3-dihydro-1H-inden-4-yl)-5-methylnicotinamide], the Eff. % in the series with Alternaria brassicae (dose 500 ppm) amounted to 80%; in the series on Uromyces appendiculatus (500 ppm) it was 100%; in the series with Puccinia recondita (dose 500 ppm) it was 94%. The chromatographic logP in series [1] amounted to 4.06.

For `CC1OC(C)(C)c2cccc(NC(=O)c3c(C(F)F)ccnc3C(F)F)c21` (centres unmarked) [Example 40], the Eff. % is 71% with Septoria tritici (500 ppm), 100% with Uromyces appendiculatus (500 ppm) and 81% in the series on Puccinia recondita (dose 500 ppm). For the same compound, in series [1], the “logP^[a]” value is 2.66^[a].

Regarding `CC1(C)Cc2cccc(NC(=O)c3ccc(Cl)nc3C(F)F)c2C1` [Example 47], the results for the Eff. % with Septoria tritici (500 ppm) and with Puccinia recondita (dose 500 ppm) were 71% and 72%, respectively. Further, the “logP^[a]” value in series [1] was 3.76^[a].

In the case of `CC1(C)Cc2cccc(NC(=O)c3cccnc3C(F)F)c2C1` [Example 49], the Eff. % amounted to 100% in the series on Sphaerotheca fuliginea (500 ppm); 89% with Alternaria brassicae (dose 500 ppm); 86% in the series with Septoria tritici (500 ppm); 100% in the series with Uromyces appendiculatus (500 ppm); 100% in the series on Puccinia recondita (dose 500 ppm). For the same compound, the “logP^[a]” value in series [1] is 3.06^[a].

As for `CC1CC(CC(C)(C)C)c2cccc(NC(=S)c3cccnc3C(F)F)c21` (centres unmarked) [Example 59], the Eff. % came to 98% in the series on Sphaerotheca fuliginea (500 ppm); 88% in the series with Alternaria brassicae (dose 500 ppm); 75% in the series on Septoria tritici (500 ppm); 100% with Uromyces appendiculatus (500 ppm); 98% in the series on Puccinia recondita (dose 500 ppm). In addition, the “logP^[a]” value in series [1] is 4.87^[a].

In the case of `CC1c2cccc(NC(=O)c3cccnc3C(F)F)c2CC1(C)C` (centres unmarked) [Example 62], the Eff. % with Sphaerotheca fuliginea (500 ppm) is 98%; in the series with Alternaria brassicae (dose 500 ppm) it was 100%; in the series on Septoria tritici (500 ppm), 100%; in the series with Uromyces appendiculatus (500 ppm) it was 100%; in the series on Puccinia recondita (dose 500 ppm), 100%. The “logP^[a]” value in series [1] was 3.35^[a].

With `CC1c2cccc(NC(=O)c3ccc(Cl)nc3C(F)F)c2CC1(C)C` (centres unmarked) [Example 64], the Eff. % is recorded as 94% in the series on Sphaerotheca fuliginea (500 ppm), 84% in the series with Uromyces appendiculatus (500 ppm) and 98% with Puccinia recondita (dose 500 ppm). The “logP^[a]” value in series [1] was 4.04^[a].

As to `CCC1Cc2c(NC(=S)c3cc(C)cnc3C(F)F)cccc2C1(C)C` (centres unmarked) [Example 70, 2-(difluoromethyl)-N-(2-ethyl-1,1-dimethyl-2,3-dihydro-1H-inden-4-yl)-5-methylpyridine-3-carbothioamide], the Eff. % with Uromyces appendiculatus (100 ppm) was 100%; in the series on Puccinia recondita (dose 100 ppm) it was 98%. Further, the chromatographic logP in series [1] turned out to be 4.41.

Take `CCC1CC(C)c2c(NC(=O)c3cccnc3C(F)F)cccc21` (centres unmarked) [Example 88]: in series [1], the “logP^[a]” value is 3.37^[a]. The Eff. % in the series on Puccinia recondita (dose 100 ppm) turned out to be 88%; in the series on Botrytis cinerea (dose 100 ppm), 89%.

In the case of `CCC1(CC)c2cccc(NC(=O)c3cccnc3C(F)F)c2CC1C` (centres unmarked) [Example 91], the Eff. % was 98% in the series on Sphaerotheca fuliginea (100 ppm), 100% in the series on Uromyces appendiculatus (100 ppm) and 94% in the series with Puccinia recondita (dose 100 ppm). Moreover, the “logP^[a]” value in series [1] was 3.99^[a].
